Consider 22 molecules from ChEMBL document CHEMBL6177939, “The role of silicon in drug discovery: a review” (RSC Med Chem, 2024).

Values after ≈ are worked out from the molar mass of the structure shown.

Data set [1] relates to Human immunodeficiency virus 2. In words: Antiviral activity against HIV-2 ROD infected in human MT-4 cells assessed as reduction in virus-induced cytopathic effect incubated for 5 days by spectrophotometric based MTT assay. The class given is functional, organism-based. To be noted: Human immunodeficiency virus 2, ROD, MT4, 120 h. In general terms: Protection from cytopathic effect is a common read-out in antiviral testing.

Data set [2] concerns Mycobacterium tuberculosis. In words: Antimycobacterial activity against Mycobacterium tuberculosis H37Rv assessed as inhibition of bacterial growth incubated for 24 hrs by alamar blue assay. Format: functional.
Data set [3] has as its system Staphylococcus aureus. As to the kind of experiment: Antibacterial activity against Staphylococcus aureus. The class given is functional.
Data set [4] concerns Escherichia coli. In words: Antibacterial activity against Escherichia coli. Format: functional.
Data set [5] deals with Pseudomonas aeruginosa. In words: Antibacterial activity against Pseudomonas aeruginosa. Format: functional.
The subject of a further data set is Rhizoctonia solani. As to the kind of experiment: Antifungal activity against Rhizoctonia solani assessed as inhibition of fungal growth at 1 microg/ml relative to control. Format: functional.
For another data set, the system named is Aedes aegypti. In words: […] activity against Aedes aegypti assessed as protection time at 0.5 microg/cm. The class given is functional.
A further data set deals with Aspergillus niger. As to the kind of experiment: Antifungal activity against Aspergillus niger ATCC 16888 assessed as reduction in fungal growth incubated for 24 hrs by broth micro-dilution method. The class given is functional. A general note: In broth dilution the organism is exposed to a series of concentrations in liquid medium.
The next data set has as its system HepG2. In words: Cytotoxicity against human HepG2 cells assessed as reduction in cell viability by XTT assay. The class given is functional, cell-based. (Tetrazolium assays rely on reduction of a dye to a coloured formazan, in cell work by metabolically active cells.)
The next data set concerns Bacillus sp. In words: Antibacterial activity against Bacillus sp. ATCC 19986 assessed as reduction in bacterial growth incubated for 24 hrs by CLSI micro-dilution method. Format: functional. To be noted: Bacillus sp. (in: firmicutes).
For a further data set, the system named is Penicillium chrysogenum. In words: Antifungal activity against Penicillium chrysogenum ATCC 11709 assessed as reduction in fungal growth incubated for 24 hrs by CLSI micro-dilution method. The class given is functional.
The subject of another data set is MCF7. In words: Cytotoxicity against human MCF7 cells assessed as reduction in cell viability by XTT assay. The class given is functional, cell-based.
The subject of data set [6] is Pseudomonas aeruginosa. In words: Antibacterial activity against Pseudomonas aeruginosa ATCC 27853 assessed as reduction in bacterial growth incubated for 24 hrs by CLSI micro-dilution method. Format: functional.
The test system of another data set is Fusarium solani. In words: Antifungal activity against Fusarium solani ATCC 20327 assessed as reduction in fungal growth incubated for 24 hrs by CLSI micro-dilution method. The class given is functional.
For data set [7], the system named is Escherichia coli. In words: Antibacterial activity against Escherichia coli ATCC 25922 assessed as reduction in cell growth incubated for 18 hrs by two-fold serial dilution method. Format: functional.
The test system of a further data set is Acinetobacter baumannii. In words: Antibacterial activity against Acinetobacter baumannii ATCC 19606 assessed as reduction in cell growth incubated for 18 hrs by two-fold serial dilution method. Format: functional.
The subject of data set [8] is Pseudomonas aeruginosa. In words: Antibacterial activity against Pseudomonas aeruginosa ATCC 27853 assessed as reduction in cell growth incubated for 18 hrs by two-fold serial dilution method. Format: functional.
The test system of data set [9] is Staphylococcus aureus. In words: Antibacterial activity against Staphylococcus aureus ATCC 25923 assessed as reduction in cell growth incubated for 18 hrs by two-fold serial dilution method. Format: functional.
The next data set relates to BJAB. As to the kind of experiment: Cytotoxicity against human BJAB cells assessed as lethal dose measured after 48 hrs. To be noted: read-out: LD50 (the source's name). Format: functional.
Another data set relates to HCT-116. As to the kind of experiment: Antiproliferative activity against human HCT-116 cells assessed as reduction in cell viability incubated for 72 hrs by MTT assay. Format: functional, cell-based. As to conditions: HCT-116, 72 h.
The subject of a further data set is Vibrio cholerae. In words: Antibacterial activity against Vibrio cholerae assessed as inhibition of bacterial growth. The class given is functional.
The subject of data set [10] is Escherichia coli. As to the kind of experiment: Antibacterial activity against Escherichia coli assessed as reduction in bacterial growth incubated for 12 hrs by broth micr-dilution method. The class given is functional.
Data set [11] deals with Staphylococcus aureus. As to the kind of experiment: Antibacterial activity against Staphylococcus aureus assessed as reduction in bacterial growth incubated for 12 hrs by broth micr-dilution method. The class given is functional.
A further data set has as its system Bacillus subtilis. In words: Antibacterial activity against Bacillus subtilis assessed as reduction in bacterial growth incubated for 12 hrs by broth micr-dilution method. Format: functional.
For data set [12], the target named is Sigma non-opioid intracellular receptor 1 (Cavia porcellus, UniProt Q60492). In words: Binding affinity to guinea pig sigma 1 receptor assessed as inhibition constant.
The subject of another data set is HT-1080. In words: Cytotoxicity against human HT-1080 cells assessed as reduction in cell growth by measuring lethal concentration for 72 hrs by MTT assay. The class given is functional.
In another data set the test system is NIH3T3. As to the kind of experiment: Cytotoxicity against mouse NIH3T3 cells assessed as reduction in cell growth by measuring lethal concentration for 72 hrs by MTT assay. Format: toxicity, cell-based. To be noted: nih3t3, 72 h.
Another data set has as its system MG-22A. As to the kind of experiment: Cytotoxicity against mouse MG-22A cells assessed as reduction in cell growth by measuring lethal concentration for 72 hrs by MTT assay. Format: functional.

Sigma non-opioid intracellular receptor 1, sequence (Q60492 whole entry): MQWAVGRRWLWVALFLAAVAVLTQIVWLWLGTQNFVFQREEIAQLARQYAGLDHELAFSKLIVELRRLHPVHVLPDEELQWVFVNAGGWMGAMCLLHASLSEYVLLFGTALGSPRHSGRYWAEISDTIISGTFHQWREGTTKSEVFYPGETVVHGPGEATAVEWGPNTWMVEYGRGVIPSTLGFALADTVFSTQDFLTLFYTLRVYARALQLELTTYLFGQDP

With `Cc1cn([C@@H]2O[C@H](CO[Si](C)(C)C(C)(C)C)[C@@]3(OS(=O)(=O)C=C3N)[C@H]2O[Si](C)(C)C(C)(C)C)c(=O)[nH]c1=O`, in data set [1], the EC50 (usually the concentration at which the effect is half-maximal) worked out at 0.034 mg/L (≈ 0.0576 µM).

`Cc1cn([C@@H]2O[C@H](CO[Si](C)(C)C(C)(C)C)[C@@]3(OS(=O)(=O)C=C3N)[C@H]2O)c(=O)[nH]c1=O`: the EC50 in data set [1] is greater than 100 mg/L. For the molecule `Cc1c(CN2CCN(C)CC2)cc(-c2ccc(Cl)cc2)n1-c1ccc(Cl)cc1`, the minimal inhibitory concentration (MIC) (as a rule, the least concentration at which growth counts as inhibited) in data set [2] was 1.7 µM.

As for `CC(=O)Nc1ccn([C@@H]2O[C@H](CO[Si](C)(C)C(C)(C)C)[C@@]3(OS(=O)(=O)C=C3N)[C@H]2O[Si](C)(C)C(C)(C)C)c(=O)n1`, the EC50 in data set [1] amounted to 0.097 mg/L (≈ 0.157 µM).

As to `C[Si]1(C)CCN(C(=O)/C=C/C=C/c2ccc3c(c2)OCO3)CC1`, the MIC in data set [2] was determined as 50 mg/L. As for `COc1cc(/C=N/CCC[Si](OC)(OC)OC)ccc1OCc1cn(CCOc2ccccc2[N+](=O)[O-])nn1`, the MIC amounted to 1.87 mg/L (≈ 3.34 µM) in the data set on Staphylococcus aureus [3], 15 mg/L (≈ 26.8 µM) against Escherichia coli [4] and 15 mg/L (≈ 26.8 µM) in the data set on Pseudomonas aeruginosa [5].

For `C[Si]1(C)CCN(C(=O)/C=C/c2ccc3c(c2)OCO3)CC1`, the minimum inhibitory concentration (MIC) in data set [2] amounted to 50 mg/L.

For `Cn1cc(C(=O)C(C#N)c2cccc([Si](C)(C)C)c2)c(C(F)F)n1` (stereo not drawn), the inhibition (as a rule, the share of the control response that was lost under treatment) at 1 µg/mL in the data set with Rhizoctonia solani was 91.2%.

Take `Cn1cc(C(=O)C(C#N)c2ccc([Si](C)(C)C)cc2F)c(C(F)F)n1` (stereo not drawn): in the data set with Rhizoctonia solani, the inhibition at 1 µg/mL came out at 91.2%. Turning to `C[Si]1(C)CCN(C(=O)C2=CCCCC2)CC1`, the Time in the data set with Aedes aegypti turned out to be 756 min. As for `NCCC[Si-]123OCC[N+]1(CCO2)CCO3` (stereo not drawn), the MIC in the data set with Aspergillus niger, with Bacillus sp., with Penicillium chrysogenum, with Pseudomonas aeruginosa [6] and in the data set on Fusarium solani was 1.2 mg/L (≈ 5.16 µM) in each case. Also, the IC50 (as a rule, the concentration needed to halve the response being measured) was determined as 150 mg/L (≈ 646 µM) in the data set on HepG2 and 65 mg/L (≈ 280 µM) in the data set with MCF7. With `O=C1c2ccccc2C(=O)N1CCC[Si-]123OCC[N+]1(CCO2)CCO3` (stereo not drawn), the MIC in the data set with Escherichia coli [7], in the data set with Acinetobacter baumannii, with Pseudomonas aeruginosa [8] and in the data set with Staphylococcus aureus [9] was 0.2 mg/L (≈ 0.552 µM) each time.

As for `CC(C)C(C)(C)[Si](C)(C)OC[C@H]1C[C@@H](n2cc(Br)c(=O)[nH]c2=O)C=C1CO`, in the data set with BJAB, the CC50 was 9 µM.

Turning to `CC(C)(C)[Si](C)(C)OC1OC(=O)C(Br)=C1Br` (stereo not drawn), the half-inhibitory concentration (IC50) in the data set with HCT-116 came to 1.3 µM. Regarding `O=c1c(I)cn(Cc2cn(CCC[Si-]345OCC[N+]3(CCO4)CCO5)nn2)c(=O)n1Cc1cn(CCC[Si-]234OCC[N+]2(CCO3)CCO4)nn1` (stereo not drawn), the MIC50 with Vibrio cholerae, in the data set on Escherichia coli [10], in the data set with Staphylococcus aureus [11] and with Bacillus subtilis was 0.18 mg/L (≈ 0.217 µM) in each case.

For the molecule `CC(C)=CCN1CC[Si]2(CCCc3ccccc32)CC1`, the Ki (as a rule, the dissociation constant of the complex between target and ligand, obtained from inhibition or displacement) in [12] stood at 0.3 µM.

Take `CCCCCCCCCOCCc1sc[n+](CCC[Si](C)(C)C)c1C.[I-]`: the LC50 in the data set with HT-1080, in the data set on NIH3T3 and with MG-22A was 0.1 mg/L throughout. Take `O=c1c(Cl)cn(Cc2cn(CCC[Si-]345OCC[N+]3(CCO4)CCO5)nn2)c(=O)n1Cc1cn(CCC[Si-]234OCC[N+]2(CCO3)CCO4)nn1` (stereo not drawn): the MIC50 in the data set with Vibrio cholerae, with Escherichia coli [10], in the data set with Staphylococcus aureus [11] and in the data set on Bacillus subtilis was 0.18 mg/L (≈ 0.243 µM) each time.

With `CCN(CC)c1ccc(/C=N/CCC[Si](OC)(OC)OC)c(OCc2cn(CCOc3ccccc3[N+](=O)[O-])nn2)c1`, the MIC in the data set with Staphylococcus aureus [3] is 0.195 mg/L (≈ 0.325 µM); in the data set on Escherichia coli [4] it was 6.3 mg/L (≈ 10.5 µM); in the data set on Pseudomonas aeruginosa [5], 6.3 mg/L (≈ 10.5 µM).

As to `CC(C)(C)[Si](C)(C)OC[C@H]1O[C@@H](n2ccc(=O)[nH]c2=O)[C@H](O[Si](C)(C)C(C)(C)C)[C@]12OS(=O)(=O)C=C2N`, the EC50 in data set [1] was 0.114 mg/L (≈ 0.198 µM). Regarding `Cn1cc(C(=O)C(C#N)c2ccc([Si](C)(C)C)cc2)c(C(F)F)n1` (stereo not drawn), the inhibition at 1 µg/mL in the data set with Rhizoctonia solani was found to be 91.2%. In the case of `c1ccc(CN2CC[Si]3(CCCc4ccccc43)CC2)cc1`, in data set [12], the Ki worked out at 0.3 µM.
